# Paper PMC10093841 (International Journal of Molecular Sciences, 2023)
# Entries after “also recorded” stand apart in the source; their conditions may differ. Read-outs that look alike come from different tables or passages of the source.
# Assays:
# [1] = Hydrogen peroxide scavenging assay (1,10-phenanthroline); details: cell-free, concentration range 0–1000 μg/mL
# Protocol: Briefly, 0.25 mL of ferrous ammonium sulfate (1 mM) solution was mixed with 1.5 mL of different concentrations (from 6 to 500 μg/mL) of carvacrol, p-cymene; acid gallic was used as a positive control. Then, 62.5 µL of H2O2 (5 mM) was added and the mixture was incubated at room temperature in the dark for 5 min. Then, 1.5 mL of 1,10-phenanthroline (1 mM) was added to each tube, mixed, and incubated for 10 min at room temperature. Finally, the absorbance was measured at 510 nm through a spectrophotometer (Thermo Scientific Multiskan GO, Monza, Italy).
# AChE = details: carvacrol stronger than its isomer thymol; cited from earlier work
# [2] = tested on: caspase-3 in SH-SY5Y cells; assay: Caspase-3 expression (Western blot) in H2O2-induced stress; type: cell-based, Human; details: pretreatment 50 μg/mL for 22 h, then H2O2 100 or 200 μM for 2 h
# Protocol: To investigate the neuroprotective effects of carvacrol and p-cymene on H2O2-induced stress in SH-SY5Y cells, the cells were assigned to a total of nine groups: Group 1: control (untreated cells); Groups 2 and 3, cells treated with H2O2 alone, at 100 and 200 μM for two h; Groups 4–5: cells treated with carvacrol or p-cymene MNTD (50 µg/mL) Groups 6–9: cells pretreated with carvacrol or p-cymene MNTD for 22 h and then exposed to H2O2 at 100 and 200 μM for another two h. After the cell lysis, we determined the caspase-3 activity. For caspase-3 activity analysis, the SH-SY5Y cells (1 × 10^4) were seeded in separate wells in 12-well plates (Corning, Inc., Corning, NY, USA). The cells were allowed to reach 70–80% confluency before the treatment groups were initiated. The cells were collected after 24 h and lysed using the Laemmli buffer to extract total proteins. For Western blot analysis, an aliquot of total protein was run on 10% SDS-PAGE gel and transferred to nitrocellulose. […] Immunoreactivity was detected through a sequential incubation with horseradish peroxidase-conjugated secondary antibody and enhanced chemiluminescence reagents. Each band density was measured using ImageJ software (WS Rasband, Image J, NIH, Bethesda, MD, USA).
# [3] = biological target: T1, porcine pancreatic amylase (Sus scrofa, UniProt P00690); assay: biochemical
# T1 construct: purchased Sigma-Aldrich
# T1 sequence (P00690 16-511): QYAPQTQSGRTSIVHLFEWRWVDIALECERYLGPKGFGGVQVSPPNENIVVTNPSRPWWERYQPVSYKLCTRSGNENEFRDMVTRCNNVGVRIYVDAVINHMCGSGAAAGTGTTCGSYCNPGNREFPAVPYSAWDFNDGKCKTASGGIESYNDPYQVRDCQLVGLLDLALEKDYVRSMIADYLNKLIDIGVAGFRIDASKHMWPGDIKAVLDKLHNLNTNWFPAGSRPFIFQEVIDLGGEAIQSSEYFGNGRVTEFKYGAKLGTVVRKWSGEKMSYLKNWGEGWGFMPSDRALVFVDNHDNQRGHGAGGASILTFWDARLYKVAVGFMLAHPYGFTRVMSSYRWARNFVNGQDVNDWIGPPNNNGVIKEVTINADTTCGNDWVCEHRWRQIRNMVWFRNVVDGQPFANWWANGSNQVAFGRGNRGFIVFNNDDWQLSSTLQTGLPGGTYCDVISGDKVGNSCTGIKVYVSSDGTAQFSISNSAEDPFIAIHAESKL
# Protocol: (§1) Anti-GAPDH antibody and enhanced chemiluminescence reagents were purchased from Santa Cruz Biotechnology (Santa Cruz, CA, USA); horseradish peroxidase-conjugated secondary antibody was purchased from Amersham Biosciences (Pittsburgh, PA, USA). Nitrocellulose was purchased from Biorad (Hercules, CA, USA).
# (§2) The percent inhibition of enzyme activity for acetylcholinesterase, butyrylcholinesterase, and α-amylase was calculated by comparison with the absorbance of the control without sample, following the formula: % = [(A0 − A1)/A0] × 100(1) where A0 is the absorbance of the control without the sample and A1 is the absorbance of the sample.
# [4] = biological target: T2, acetylcholinesterase (AChE) type VI-S from Electrophorus electricus (Electrophorus electricus, UniProt O42275); assay: Cholinesterase inhibition, Ellman's colorimetric method (AChE); type: biochemical
# T2 construct: purchased Sigma-Aldrich
# T2 sequence (O42275 24-633): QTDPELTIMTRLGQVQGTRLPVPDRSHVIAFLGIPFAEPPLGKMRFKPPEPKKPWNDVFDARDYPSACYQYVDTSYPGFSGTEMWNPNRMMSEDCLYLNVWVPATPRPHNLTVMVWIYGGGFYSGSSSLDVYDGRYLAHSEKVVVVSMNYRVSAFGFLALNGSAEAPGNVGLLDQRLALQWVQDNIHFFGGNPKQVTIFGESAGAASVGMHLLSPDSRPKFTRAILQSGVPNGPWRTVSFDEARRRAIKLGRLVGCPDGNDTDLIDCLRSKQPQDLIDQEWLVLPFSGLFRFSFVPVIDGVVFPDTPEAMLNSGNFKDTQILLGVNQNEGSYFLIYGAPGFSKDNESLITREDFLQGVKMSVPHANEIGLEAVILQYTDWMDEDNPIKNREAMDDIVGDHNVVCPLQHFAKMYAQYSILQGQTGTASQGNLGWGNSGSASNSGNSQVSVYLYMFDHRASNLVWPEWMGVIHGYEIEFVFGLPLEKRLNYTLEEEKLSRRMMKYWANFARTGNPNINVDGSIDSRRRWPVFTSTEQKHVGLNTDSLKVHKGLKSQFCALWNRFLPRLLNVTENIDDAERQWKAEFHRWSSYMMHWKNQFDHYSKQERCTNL
# Protocol: as §1
# (§3) The cholinesterase inhibition was evaluated by Ellman’s colorimetric method with some modifications. Briefly, in a total volume of 1 mL, 415 µL of Tris-HCl buffer 0.1 M (pH 8), 10 µL of a buffer solution of carvacrol or p-cymene (in methanol) at different concentrations (100, 10, 1 and 0.1 µg/mL), and 25 µL of a solution containing 0.28 U/mL of AChE (or BChE) were incubated for 15 min at 37 °C. […] The absorbance was measured at 405 nm in a spectrophotometer (Thermo Scientific Multiskan GO, Monza, Italy).
# as §2
# [5] = biological target: T3, butyrylcholinesterase (BChE) from equine serum (Equus caballus, UniProt P81908); assay: biochemical
# T3 construct: purchased Sigma-Aldrich; host or cells: equine serum
# T3 sequence (P81908 whole entry): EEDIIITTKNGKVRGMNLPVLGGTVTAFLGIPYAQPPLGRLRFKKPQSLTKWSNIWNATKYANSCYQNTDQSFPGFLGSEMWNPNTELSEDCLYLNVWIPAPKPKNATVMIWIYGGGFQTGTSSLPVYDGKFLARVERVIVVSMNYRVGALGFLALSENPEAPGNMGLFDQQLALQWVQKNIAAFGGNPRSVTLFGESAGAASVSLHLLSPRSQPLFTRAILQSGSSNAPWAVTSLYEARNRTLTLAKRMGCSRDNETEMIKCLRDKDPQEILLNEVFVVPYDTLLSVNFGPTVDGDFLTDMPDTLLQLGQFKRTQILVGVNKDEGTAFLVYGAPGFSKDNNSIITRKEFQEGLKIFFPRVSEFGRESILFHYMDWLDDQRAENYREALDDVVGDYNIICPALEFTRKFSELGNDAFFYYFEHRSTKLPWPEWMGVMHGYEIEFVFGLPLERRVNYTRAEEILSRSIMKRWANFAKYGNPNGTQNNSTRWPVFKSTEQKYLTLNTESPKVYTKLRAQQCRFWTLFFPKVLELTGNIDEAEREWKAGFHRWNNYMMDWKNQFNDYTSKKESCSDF
# Protocol: as §1, §3, §2
# BChE = tested on: BChE; parameters: method as in doi:10.1007/s10068-015-0093-0; details: at a concentration of 2 mg/mL; cited from earlier work
Compound,H2O2 scavenging activity [1],inhibitory effect relative to thymol (AChE),caspase-3 expression [2],IC50 ([3]; read-out: IC50 α-Amylase (converted)),IC50 [4],"IC50 ([5]; concentration required to reduce the enzymatic activity by 50%, read-out: IC50 BChE (converted))",inhibition of BChE activity (BChE),IC50 [3],IC50 [5]
Cc1ccc(C(C)C)cc1O [Carvacrol],more active than p-cymene,10 times,reduced; also recorded: caspase-3 was inhibited,1140 µM,25.3 µM,218 µM,,,
Cc1ccc(C(C)C)c(O)c1 [Thymol],,,,,,,42.2%,,
Cc1ccc(C(C)C)cc1 [p-Cymene],,,,,113 µM,,,1600 µM,10800 µM
